Source: patent publication US12052991B2, “Substituted pyridinyloxybenzenes and salts thereof and use thereof as herbicidal agents” (Bayer Aktiengesellschaft, priority 2018, dated 2024)

Experiments:
Assay type in all cases: in vivo
[1] = tested on: Amaranthus retroflexus (AMARE); assay: Herbicidal pre-emergence action, test C (Table C6); settings: visual scoring after about 3 weeks, 100% = plants have died, 0% = like control plants
Method in brief: (§1)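 Sandy loam, doubly sown pots; surface spray pre-emergence; 1280 or 320 g/ha; 0.5% additive; 600 L/ha. Greenhouse, ~3 weeks. Visual % vs untreated.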

Bassia scoparia (KCHSC) [2] = assay: Herbicidal pre-emergence action, test C (Table C11); settings: dosage 1280 g/ha, visual scoring vs untreated controls
Method in brief: as §1

[3] = tested on: Digitaria sanguinalis (DIGSA); assay: Herbicidal post-emergence action (Table B10); settings: dosage 1280 g/ha; visual rating about 3 weeks after treatment; 100% = plants have died, 0% = like control plants
Method in brief: (§2)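 Weeds grown from seed in sandy loam in the greenhouse were sprayed at the one-leaf stage, 2 to 3 weeks after sowing, with WP or EC formulations in water plus 0.5% additive at 600 L/ha. Rates corresponded to 1280 or 320 g/ha; damage was rated visually versus untreated controls after about 3 weeks.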

[4] = tested on: Abutilon theophrasti (ABUTH); assay: Herbicidal post-emergence action (Table B5); settings: rated visually after about 3 weeks, 100% = plants have died, 0% = like control plants
Method in brief: as §2

[5] = tested on: harmful plants ABUTH, AMARE, ECHCG, LOLRI, MATIN, POAAN, SETVI, STEME, ALOMY, DIGSA, KCHSC and VERPE; assay: Herbicidal pre-emergence action (test C), summary of Tables C1-C12; settings: application rate of 1280 or 320 g of active ingredient per hectare; summary in words
Method in brief: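 Pre-emergence pot test in sandy loam: WP or EC formulations were sprayed onto the covering soil with 0.5% additive at 600 L/ha water, at 1280 or 320 g/ha. Plants were kept in the greenhouse, and activity was rated visually about 3 weeks later as % versus untreated controls (100% = dead).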

Poa annua (POAAN) [6] = assay: Herbicidal post-emergence action (Table B3); settings: rated visually after about 3 weeks, 100% = plants have died, 0% = like control plants
Method in brief: as §2

[7] = tested on: harmful plants ABUTH, AMARE, ECHCG, LOLRI, MATIN, POAAN, SETVI, STEME, ALOMY, DIGSA, KCHSC and VERPE; assay: Herbicidal post-emergence action, summary of Tables B1-B12; settings: application rate of 1280 or 320 g of active ingredient per hectare; summary in words
Method in brief: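 Greenhouse weeds in sandy loam treated post-emergence at the one-leaf stage, 2–3 weeks after sowing, with WP or EC formulations sprayed with 0.5% additive at 600 L/ha water, 1280 or 320 g/ha. Damage rated visually after about 3 weeks versus untreated controls (0% = like control, 100% = dead).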

[8] = tested on: Matricaria inodora (MATIN); assay: Herbicidal pre-emergence action, test C (Table C7); settings: visual scoring after about 3 weeks, 100% = plants have died, 0% = like control plants
Method in brief: as §1

Poa annua (POAAN) [9] = assay: Herbicidal pre-emergence action, test C (Table C3); settings: visual scoring after about 3 weeks, 100% = plants have died, 0% = like control plants
Method in brief: as §1

[10] = tested on: Alopecurus myosuroides (ALOMY); assay: Herbicidal pre-emergence action, test C (Table C9); settings: dosage 1280 g/ha; visual scoring after about 3 weeks; 100% = plants have died, 0% = like control plants
Method in brief: as §1

[11] = tested on: Amaranthus retroflexus (AMARE); assay: Herbicidal post-emergence action (Table B6); settings: visual rating about 3 weeks after treatment, 100% = plants have died, 0% = like control plants
Method in brief: as §2

Stellaria media (STEME) [12] = assay: Herbicidal pre-emergence action, test C (Table C8); settings: visual scoring after about 3 weeks, 100% = plants have died, 0% = like control plants
Method in brief: as §1

[13] = tested on: Alopecurus myosuroides (ALOMY); assay: Herbicidal post-emergence action (Table B9); settings: rated visually after about 3 weeks, 100% = plants have died, 0% = like control plants
Method in brief: as §2

Setaria viridis (SETVI) = assay: Herbicidal pre-emergence action, test C (Table C4); settings: visual scoring after about 3 weeks, 100% = plants have died, 0% = like control plants
Method in brief: as §1

Veronica persica (VERPE) [14] = assay: Herbicidal post-emergence action (Table B12); settings: visual rating about 3 weeks after treatment, 100% = plants have died, 0% = like control plants
Method in brief: as §2

[15] = tested on: Matricaria inodora (MATIN); assay: Herbicidal post-emergence action (Table B7); settings: rated visually after about 3 weeks, 100% = plants have died, 0% = like control plants
Method: Seeds of mono- and dicotyledonous weed plants were placed in plastic pots in sandy loam soil (doubly sown with in each case one species of mono- or dicotyledonous weed plants per pot), covered with soil and cultivated in a greenhouse under controlled growth conditions. 2 to 3 weeks after sowing, the test plants were treated at the one-leaf stage. The compounds of the invention, formulated in the form of wettable powders (WP) or as emulsion concentrates (EC), were applied onto the green parts of the plants as aqueous suspension or emulsion with addition of 0.5% additive at a water application rate of 600 liters per hectare (converted). After the test plants had been kept in the greenhouse under optimum growth conditions for about 3 weeks, the activity of the preparations was rated visually in comparison to untreated controls. For example, 100% activity=the plants have died, 0% activity=like control plants. Tables B1 to B12 below show the effects of selected compounds of the general formula (I) according to Table 1 on various harmful plants and an application rate corresponding to 1280 or 320 g/ha, which were obtained by the experimental procedure mentioned above.

[16] = tested on: Abutilon theophrasti (ABUTH); assay: Herbicidal pre-emergence action, test C (Table C5); settings: dosage 1280 g/ha; visual scoring after about 3 weeks; 100% = plants have died, 0% = like control plants
Method in brief: as §1

Veronica persica (VERPE) [17] = assay: Herbicidal pre-emergence action, test C (Table C12); settings: dosage 1280 g/ha, visual scoring vs untreated controls
Method in brief: as §1

[18] = tested on: Digitaria sanguinalis (DIGSA); assay: Herbicidal pre-emergence action, test C (Table C10); settings: visual scoring after about 3 weeks, 100% = plants have died, 0% = like control plants
Method in brief: as §1

Stellaria media (STEME) [19] = assay: Herbicidal post-emergence action (Table B8); settings: visual rating about 3 weeks after treatment, 100% = plants have died, 0% = like control plants
Method in brief: as §2

Bassia scoparia (KCHSC) [20] = assay: Herbicidal post-emergence action (Table B11); settings: visual rating about 3 weeks after treatment, 100% = plants have died, 0% = like control plants
Method in brief: as §2

Q: What does the source list for `Cc1cc(F)c(-c2cc(C(F)F)no2)c(Oc2ncc(Cl)cc2F)c1` [Example 1-89]?
A: Pre-emergence action against Amaranthus retroflexus (AMARE) ([1]; dosage 320 g/ha): 100%; Pre-emergence action against Amaranthus retroflexus (AMARE) ([1]; dosage 1280 g/ha): 100%; Pre-emergence action against Bassia scoparia (KCHSC) (Bassia scoparia (KCHSC) [2]): 90%; Post-emergence action against Digitaria sanguinalis (DIGSA) [3]: 100%; Post-emergence action against Abutilon theophrasti (ABUTH) ([4]; 320 g/ha): 100%; Post-emergence action against Abutilon theophrasti (ABUTH) ([4]; 1280 g/ha): 100%; herbicidal activity against the harmful plants of Tables C1-C12 in pre-emergence treatment [5]: very good herbicidal activity; Post-emergence action against Poa annua (POAAN) (Poa annua (POAAN) [6]; 320 g/ha): 100%; Post-emergence action against Poa annua (POAAN) (Poa annua (POAAN) [6]; 1280 g/ha): 100%; herbicidal activity against the harmful plants of Tables B1-B12 in post-emergence treatment [7]: very good herbicidal activity; Pre-emergence action against Matricaria inodora (MATIN) ([8]; dosage 320 g/ha): 90%; Pre-emergence action against Matricaria inodora (MATIN) ([8]; dosage 1280 g/ha): 90%; Pre-emergence action against Poa annua (POAAN) (Poa annua (POAAN) [9]; dosage 320 g/ha): 90%; Pre-emergence action against Poa annua (POAAN) (Poa annua (POAAN) [9]; dosage 1280 g/ha): 100%; Pre-emergence action against Alopecurus myosuroides (ALOMY) [10]: 100%; Post-emergence action against Amaranthus retroflexus (AMARE) ([11]; dosage 320 g/ha): 100%; Post-emergence action against Amaranthus retroflexus (AMARE) ([11]; dosage 1280 g/ha): 100%; Pre-emergence action against Stellaria media (STEME) (Stellaria media (STEME) [12]; dosage 320 g/ha): 90%; Pre-emergence action against Stellaria media (STEME) (Stellaria media (STEME) [12]; dosage 1280 g/ha): 90%; Post-emergence action against Alopecurus myosuroides (ALOMY) ([13]; 320 g/ha): 100%; Post-emergence action against Alopecurus myosuroides (ALOMY) ([13]; 1280 g/ha): 100%; Pre-emergence action against Setaria viridis (SETVI) (Setaria viridis (SETVI); dosage 320 g/ha): 100%; Pre-emergence action against Setaria viridis (SETVI) (Setaria viridis (SETVI); dosage 1280 g/ha): 100%; Post-emergence action against Veronica persica (VERPE) (Veronica persica (VERPE) [14]; dosage 320 g/ha): 100%; Post-emergence action against Veronica persica (VERPE) (Veronica persica (VERPE) [14]; dosage 1280 g/ha): 100%; Post-emergence action against Matricaria inodora (MATIN) ([15]; 320 g/ha): 100%; Post-emergence action against Matricaria inodora (MATIN) ([15]; 1280 g/ha): 100%; Pre-emergence action against Abutilon theophrasti (ABUTH) [16]: 90%; Pre-emergence action against Veronica persica (VERPE) (Veronica persica (VERPE) [17]): 90%; Pre-emergence action against Digitaria sanguinalis (DIGSA) ([18]; dosage 320 g/ha): 90%; Pre-emergence action against Digitaria sanguinalis (DIGSA) ([18]; dosage 1280 g/ha): 100%; Post-emergence action against Stellaria media (STEME) (Stellaria media (STEME) [19]; dosage 320 g/ha): 100%; Post-emergence action against Stellaria media (STEME) (Stellaria media (STEME) [19]; dosage 1280 g/ha): 100%; Post-emergence action against Bassia scoparia (KCHSC) (Bassia scoparia (KCHSC) [20]; dosage 320 g/ha): 90%; Post-emergence action against Bassia scoparia (KCHSC) (Bassia scoparia (KCHSC) [20]; dosage 1280 g/ha): 100%
